{"source": "patent US7767659B2", "about": "“Synthesis of naturally occurring ecteinascidins and related compounds” (Pharma Mar, S.A., priority 2002, dated 2010)", "key": {"LoVo": {"system": "LoVo", "assay": "cells", "details": "Homo sapiens, LoVo, 48 h", "method_in_brief": "(§1)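 Colorimetric SRB read (490 nm) on triplicate wells after 48 h at 37 °C, 5% CO2. Dose range 10 to 10^−8 μg/ml; 5×10^3 cells/well pre-attached 18 h.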"}, "A-549": {"system": "A-549", "assay": "cells", "details": "Homo sapiens, A549, 48 h", "method_in_brief": "as §1"}, "HT-29": {"system": "HT-29", "assay": "cells", "details": "Homo sapiens, HT-29, 48 h", "method_in_brief": "as §1"}, "K-562": {"system": "K-562", "assay": "Inhibition of cells growth by colorimetric assay (SRB)", "details": "Homo sapiens, K562, 48 h", "method_in_brief": "as §1"}, "LoVo-Dox": {"system": "LoVo-Dox", "assay": "Inhibition of cells growth by colorimetric assay (SRB)", "details": "Homo sapiens, 48 h", "method_in_brief": "as §1"}, "HeLa": {"system": "HeLa", "assay": "Inhibition of cells growth by colorimetric assay (SRB)", "details": "Homo sapiens, HeLa, 48 h", "method_in_brief": "as §1"}, "LNCaP": {"system": "LNCaP", "assay": "Inhibition of cells growth by colorimetric assay (SRB)", "details": "Homo sapiens, LNCaP, 48 h", "method_in_brief": "as §1"}, "IGROV-ET": {"system": "IGROV-ET", "assay": "Inhibition of cells growth by colorimetric assay (SRB)", "details": "Homo sapiens, 48 h", "method_in_brief": "as §1"}, "SK-BR-3": {"system": "SK-BR-3", "assay": "Inhibition of cells growth by colorimetric assay (SRB)", "details": "Homo sapiens, SK-BR-3, 48 h", "method_in_brief": "as §1"}, "SK-MEL-28": {"system": "SK-MEL-28", "assay": "Inhibition of cells growth by colorimetric assay (SRB)", "details": "Homo sapiens, SK-MEL-28, 48 h", "method_in_brief": "as §1"}, "HeLa-APL": {"system": "HeLa-APL", "assay": "Inhibition of cells growth by colorimetric assay (SRB)", "details": "Homo sapiens, 48 h", "method_in_brief": "as §1"}, "DU-145": {"system": "DU-145", "assay": "Inhibition of cells growth by colorimetric assay (SRB)", "details": "Homo sapiens, DU-145, 48 h", "method_in_brief": "as §1"}, "PANC-1": {"system": "PANC-1", "assay": "Inhibition of cells growth by colorimetric assay (SRB)", "details": "Homo sapiens, PANC-1, 48 h", "method_in_brief": "as §1"}, "IGROV-1": {"system": "IGROV-1", "assay": "Inhibition of cells growth by colorimetric assay (SRB)", "details": "Homo sapiens, IGROV-1, 48 h", "method_in_brief": "as §1"}}}
{"smiles": "COc1c(C)cc2c(c1O)[C@H]1N[C@@H](C2)[C@H](O)N2C1[C@@H]1SCC(=O)C(=O)OC[C@H]2c2c3c(c(C)c(OC(C)=O)c21)OCO3", "note": "(stereo partly drawn) [compound 43]", "values": [{"measurement": "GI50", "setting": "LoVo; read-out: LOVO GI50", "result": 0.0312, "unit": "µM"}, {"measurement": "CC50", "setting": "LoVo; read-out: LOVO LC50", "result": 16.7, "unit": "µM"}, {"measurement": "IC (TGI)", "setting": "LoVo; read-out: LOVO TGI", "result": 0.0867, "unit": "µM"}, {"measurement": "GI50", "setting": "A-549; read-out: A549 GI50", "result": 0.0261, "unit": "µM"}, {"measurement": "CC50", "setting": "A-549; read-out: A549 LC50", "result": 0.148, "unit": "µM"}, {"measurement": "IC (TGI)", "setting": "A-549; read-out: A549 TGI", "result": 0.0621, "unit": "µM"}, {"measurement": "GI50", "setting": "HT-29; read-out: HT29 GI50", "result": 0.0242, "unit": "µM"}, {"measurement": "CC50", "setting": "HT-29; read-out: HT29 LC50", "result": 16.7, "unit": "µM"}, {"measurement": "IC (TGI)", "setting": "HT-29; read-out: HT29 TGI", "result": 0.19, "unit": "µM"}, {"measurement": "GI50", "setting": "K-562; read-out: K562 GI50", "result": 0.00311, "unit": "µM"}, {"measurement": "CC50", "setting": "K-562; read-out: K562 LC50", "result": 0.895, "unit": "µM"}, {"measurement": "IC (TGI)", "setting": "K-562; read-out: K562 TGI", "result": 0.0138, "unit": "µM"}, {"measurement": "GI50", "setting": "LoVo-Dox; read-out: LOVO-DOX GI50", "result": 0.423, "unit": "µM"}, {"measurement": "CC50", "setting": "LoVo-Dox; read-out: LOVO-DOX LC50", "result": 16.7, "unit": "µM"}, {"measurement": "IC (TGI)", "setting": "LoVo-Dox; read-out: LOVO-DOX TGI", "result": 1.15, "unit": "µM"}, {"measurement": "GI50", "setting": "HeLa; read-out: HELA GI50", "result": 0.00939, "unit": "µM"}, {"measurement": "CC50", "setting": "HeLa; read-out: HELA LC50", "result": 0.145, "unit": "µM"}, {"measurement": "IC (TGI)", "setting": "HeLa; read-out: HELA TGI", "result": 0.0399, "unit": "µM"}, {"measurement": "GI50", "setting": "LNCaP; read-out: LNCAP GI50", "result": 0.00658, "unit": "µM"}, {"measurement": "CC50", "setting": "LNCaP; read-out: LNCAP LC50", "result": 0.0887, "unit": "µM"}, {"measurement": "IC (TGI)", "setting": "LNCaP; read-out: LNCAP TGI", "result": 0.0202, "unit": "µM"}, {"measurement": "GI50", "setting": "IGROV-ET; read-out: IGROV-ET GI50", "result": 0.0685, "unit": "µM"}, {"measurement": "CC50", "setting": "IGROV-ET; read-out: IGROV-ET LC50", "result": 5.8, "unit": "µM"}, {"measurement": "IC (TGI)", "setting": "IGROV-ET; read-out: IGROV-ET TGI", "result": 0.369, "unit": "µM"}, {"measurement": "GI50", "setting": "SK-BR-3; read-out: SK-BR3 GI50", "result": 0.00583, "unit": "µM"}, {"measurement": "CC50", "setting": "SK-BR-3; read-out: SK-BR3 LC50", "result": 0.164, "unit": "µM"}, {"measurement": "IC (TGI)", "setting": "SK-BR-3; read-out: SK-BR3 TGI", "result": 0.0242, "unit": "µM"}, {"measurement": "GI50", "setting": "SK-MEL-28; read-out: MEL-28 GI50", "result": 0.00909, "unit": "µM"}, {"measurement": "CC50", "setting": "SK-MEL-28; read-out: MEL-28 LC50", "result": 0.091, "unit": "µM"}, {"measurement": "IC (TGI)", "setting": "SK-MEL-28; read-out: MEL-28 TGI", "result": 0.0327, "unit": "µM"}, {"measurement": "GI50", "setting": "HeLa-APL; read-out: HELA-APL GI50", "result": 0.0241, "unit": "µM"}, {"measurement": "CC50", "setting": "HeLa-APL; read-out: HELA-APL LC50", "result": 0.423, "unit": "µM"}, {"measurement": "IC (TGI)", "setting": "HeLa-APL; read-out: HELA-APL TGI", "result": 0.0732, "unit": "µM"}, {"measurement": "GI50", "setting": "DU-145; read-out: DU145 GI50", "result": 0.0136, "unit": "µM"}, {"measurement": "CC50", "setting": "DU-145; read-out: DU145 LC50", "result": 2.92, "unit": "µM"}, {"measurement": "IC (TGI)", "setting": "DU-145; read-out: DU145 TGI", "result": 0.067, "unit": "µM"}, {"measurement": "GI50", "setting": "PANC-1; read-out: PANC-1 GI50", "result": 0.0229, "unit": "µM"}, {"measurement": "CC50", "setting": "PANC-1; read-out: PANC-1 LC50", "result": 2.15, "unit": "µM"}, {"measurement": "IC (TGI)", "setting": "PANC-1; read-out: PANC-1 TGI", "result": 0.0827, "unit": "µM"}, {"measurement": "GI50", "setting": "IGROV-1; read-out: IGROV GI50", "result": 0.0106, "unit": "µM"}, {"measurement": "CC50", "setting": "IGROV-1; read-out: IGROV LC50", "result": 0.384, "unit": "µM"}, {"measurement": "IC (TGI)", "setting": "IGROV-1; read-out: IGROV TGI", "result": 0.0496, "unit": "µM"}]}
